The record followed here is patent US20120029066A1, “USE OF FLAVONES FOR TREATING PSYCHIATRIC DISORDERS WITH SENSORIMOTOR GATING DEFICITS” (Taipei Medical University, priority 2010, published 2012).

The test system of experiment [1] is mice. The experiment is described as follows: PPI of startle response after bilateral intra-cerebella microinjection of test compounds. It is filed as in vivo. The note with it: for reinstating ketamine induced PPI disruption: FIG. 4, FIG. 5. The procedure: In view of the finding in FIGS. 2 and 3, test compounds (e.g., hispidulin or Ro-154513) were microinjected into cerebella (e.g., i.cb microinjection) of the test animals to confirm the action site of hispidulin, by observing whether the MeAmph, KET, or MK-801-induced PPI disruption may be rescued.
Briefly, the mice were anaesthetized with pentobarbital (100 mg/kg i.p.) and placed in a stereotaxic frame. After shaving the hair, the skull surface was exposed by an incision. The head position of the mice was adjusted so that the bregma-lambda axis was horizontal. Then, two 24 gauge stainless-steel cannulae were implanted bilaterally into the lateral cerebellum (−6.4 mm caudal, ±1.5 mm lateral, −1.0 mm ventral from Bregma), according to stereotaxic coordinates (Paxions, 2001). Three stainless steel screws and dental cement were used to fix the cannulae on the top of the skull. The animal was allowed to fully recover after surgery for at least one week before the behavioral experiments were conducted.
On the day of experiment, test compounds were injected through the embedded cannula at 0.5 μl on each side of the cerebellum for 30 s and waited for 1 min to allow the injected compounds to diffuse into the cerebellum. PPI test were conducted as described in Example 2. After experiments, methylene blue was microinjected (0.5 μl/side) and animals were sacrificed and cerebellar slices were dissected to confirm the microinjection site. The data was discarded in the mice with incorrect microinjection sites.

In experiment [2] the test system is mice. The experiment is described as follows: Prepulse inhibition (PPI) of acoustic startle response, test compounds i.p. To be noted: for rescue of PPI disruption induced by methamphetamine: MeAmPh 2 mg/kg i.p., 71 dB-prepulse protocol, FIG. 7; for effect of psychotomimetic alone on pre-pulse inhibition of the startle response: control experiment, KET 30 mg/Kg i.p. or MeAmph 2 mg/Kg i.p.

In the next experiment the test system is Male ICR mice. Kind of experiment: Methamphetamine-induced hyperlocomotion, locomotor activity test. It counts as in vivo. The note with it: 10 mg/Kg i.p. after methamphetamine 2 mg/kg; test after 15 minutes; FIG. 1. The procedure: Male ICR mice (25-35 g) were used in this study. They were bred, housed and maintained in the animal facility center with temperature- and humidity-controlled and 12:12 light dark cycle in National Taiwan University Medical College (NTUM) (Taiwan, R.O.C.). All animal experiments were carried out in accordance with the guidelines established by the Institutional Animal Care and Utilization Committee of the respective university.
Methamphetamine (MeAmPh, 2 mg/kg) was injected into mice to induce hyperlocomotion in the mice as a typical model for behavioral experiments.
After 15 minutes, the treated mice were then subjected to locomotor activity test.
Data herein are expressed as the mean±S.E.M and the n number indicates the number of the mice used. Statistical comparisons between the data in control and treatment conditions were analyzed by Student's t test. An effect was considered statistically significant if the p value was less than 0.05.

Setting [3] is: 10 nmol i.cb., KET 30 mg/Kg i.p.
[4] abbreviates: 71 or 77 dB prepulse, 115 dB pulse.

Structures are written as SMILES.

As to `CCOC(=O)c1ncn2c1CN(C)C(=O)c1cc(N=[N+]=[N-])ccc1-2` [Ro 154513, reference compound], in the experiment with mice [1] (setting [3]), the “reinstating ketamine induced PPI disruption” value is given as “reinstated”.

For `O=c1cc(-c2ccc(O)c(O)c2)oc2cc(O)cc(O)c12` [luteolin], the “rescue of PPI disruption induced by methamphetamine” value in the experiment on mice [2] (10 mg/Kg i.p.) is listed as “significantly rescued”.

Turning to `COc1c(O)cc2oc(-c3ccc(O)cc3)cc(=O)c2c1O` [hispidulin], the “reinstating ketamine induced PPI disruption” value in the experiment on mice [1] (setting [3]) is given as “effective in reinstating”. In addition, the “reinstating MK-801 induced PPI disruption” value with mice [1] (10 nmol i.cb., MK-801 0.3 mg/Kg i.p., FIG. 4) is given as “effective in reinstating”. The “reinstating methamphetamine induced PPI disruption” value with mice [1] (10 nmol i.cb., methamphetamine 2 mg/Kg i.p., FIG. 4) is listed as “effective in reinstating”. In addition, in the experiment on Male ICR mice, the “decreasing MeAmph-induced hyperlocomotor activity” value is recorded as “active”. The “rescue of KET impaired PPI inhibition” value in the experiment with mice [2] (10 mg/Kg i.p., 15-minute before KET 30 mg/Kg i.p., 71 or 77 dB prepulse, 115 dB pulse, FIG. 2) is given as “rescued”. Moreover, in the experiment with mice [2] (50 mg/Kg i.p., 15-minute before MeAmph 2 mg/Kg i.p., 71 or 77 dB prepulse, FIG. 3), the “rescue of MeAmph impaired PPI inhibition” value is recorded as “rescued”.

Turning to `NS(=O)(=O)c1cc(C(=O)O)c(NCc2ccco2)cc1Cl` [furosemide, reference compound], the “effect on the reinstated ketamine induced PPI disruption” value with mice [1] (furosemide 50 nmol i.cb., reinstatement by Ro-154513 or hispidulin 10 nmol i.cb., KET 30 mg/Kg i.p., FIG. 6) is “antagonized”. Also, in the experiment with mice [1] (furosemide 50 nmol i.cb., reinstatement by Ro-154513 or hispidulin 10 nmol i.cb., MeAmPh 2 mg/Kg i.p., FIG. 6), the “effect on the reinstated methamphetamine induced PPI disruption” value was “antagonized”.

On to `CNC1(c2ccccc2Cl)CCCCC1=O` (centres unmarked) [KET, ketamine, reference compound], for which, in the experiment on mice [2] (setting [4]), the “effect of psychotomimetic alone on pre-pulse inhibition of the startle response” value is on record as “inhibited the pre-pulse inhibition”.

In the case of `COc1ccc(-c2cc(=O)c3c(O)cc(O)cc3o2)cc1` [acacetin], the “decreasing MeAmph-induced hyperlocomotor activity” value in the experiment on Male ICR mice is given as “active”. In addition, the “rescue of PPI disruption induced by methamphetamine” value in the experiment on mice [2] (10 mg/Kg i.p.) is given as “significantly rescued”.

Consider `CN[C@@H](C)Cc1ccccc1` [MeAmph, methamphetamine, reference compound], for which, in the experiment with mice [2] (setting [4]), the “effect of psychotomimetic alone on pre-pulse inhibition of the startle response” value is “inhibited the pre-pulse inhibition”.
